# From patent publication US20240016938A1, “METHODS FOR INCREASING THE BIOAVAILABILITY OF NUCLEOSIDE MEDICINAL AGENTS” (ZOGENIX MDS, INC., priority 2022, published 2024)
# Assay: Pooled population PK analysis of dC and dT (five studies: healthy volunteers, renal impairment, TK2d participants)
# Settings: human, in vivo
# Description: A phase 2 study was conducted as an open-label continuation of treatment with MT1621 in participants with TK2designed to evaluate the safety, tolerability, and PK of MT1621 (fixed dose combination of dC and dT supplied in a single packet). The study enrolled forty-seven (47) participants. After enrollment, participants transitioned from their current chemical grade 2′-deoxycytidine monophosphate/2′-deoxythymidine monophosphate (dCMP/dTMP) to deoxycytidine and deoxythymidine, or continued the use of deoxycytidine and deoxythymidine. Upon enrollment, participants who were on a stable maintenance dose of 400 mg/kg/day were treated with the same dose of deoxycytidine and deoxythymidine three-times daily (TID). Study participants who were on a total dose <400 mg/kg/day were transitioned to either 260 mg/kg/day (130 mg/kg/day of deoxycytidine and 130 mg/kg/day of deoxythymidine) TID, 520 mg/kg/day (260 mg/kg/day of deoxycytidine and 260 mg/kg/day of deoxythymidine) TID, or 800 mg/kg/day (400 mg/kg/day of deoxycytidine and 400 mg/kg/day of deoxythymidine) TID, depending on which was closest to the participants' previous dose.
# The early protocol for deoxycytidine and deoxythymidine administration was for the participants to take the drug product without regard to food. […] Later in the program, when an unexpected effect of food on PK was noted, the protocol was amended to instruct the participants to take the drug product with food. By then, planned PK samples had been taken in a majority of the participants. A total of 3 blood samples were collected from each individual following study Day 1 to measure dC plasma concentrations. Sparse PK blood sampling and PD endpoint collection was conducted according to the following schedule: at Month 1 sampled 0.5, 1, 2, or 3 hours post-dose; and at Month 3 sampled 8, 10, 12, or 14 hours post-dose. During sampling, it was noted whether food was consumed from 1 hour pre-dose to 2 hours post-dose. And, the lower limit of quantification (LLOQ) was 0.5 ng/mL for both dC and dT.
# For the calculation of the PK parameters, raw (unadjusted) plasma dC and dT concentrations below the limit of quantitation (BLQ) were set to 1% the limit of quantitation (LOQ) of the assay. […] Since all participants had measurable pre-dose concentrations, Kel and associated PK parameters were not calculated for unadjusted data.
# Analysis of the PK data pooled from five (5) studies (including those described in Examples 1 and 2) comprising three (3) Phase 1 studies in healthy volunteers (HV) and two (2) open-label Phase 2 studies that included both adult and pediatric study participants with TK2d. A total of 119 study participants were included, which consisted of 44 healthy study participants, 16 study participants with renal impairment (moderate or severe), and 59 participants with TK2d that included participants aged from 0.9 years to 75.6 year of age.
# Pooled population PK analysis confirmed that the fed state was a statistically significant covariate of the PK of dC including the TK2 deficient participants. Table 6 reflects analysis of all dC PK data including those for TK2 deficient participants. […] This is the pertinent value to estimate food effect on dC exposures. […] The decrease in the rate of dC absorption with food (parameter Ka in Table 6) is believed to be due to slower gastric/intestinal motility in the fed state. It is likely that the effect of food on dT concentration in participants with TK2 deficiency was masked by the high variability and limited PK sampling.
smiles,measurement,value
"Nc1ccn([C@H]2C[C@H](O)[C@@H](CO)O2)c(=O)n1 [dC, β-D-2′-deoxycytidine]","CL/F, apparent clearance: Bootstrap Median [2.5th-97.5th percentile]","392000 (318000, 492000) L/h"
same,"CL/F, apparent clearance: NONMEM Estimate (% RSE)",392000 (11.0%) L/h
same,IIV on BSL: Bootstrap Median [2.5th-97.5th percentile],"26.9% (19.4%, 35.3%)"
same,IIV on BSL: NONMEM Estimate (% RSE),27.3% (15.0%) CV %
same,IIV on CL/F: Bootstrap Median [2.5th-97.5th percentile],"60.3% (36.2%, 82.3%)"
same,IIV on CL/F: NONMEM Estimate (% RSE),61.6% (18.0%) CV%
same,IIV on F: Bootstrap Median [2.5th-97.5th percentile],"73.3% (37.8%, 102%)"
same,IIV on F: NONMEM Estimate (% RSE),75.1% (19.8%) CV %
same,IIV on Ka: Bootstrap Median [2.5th-97.5th percentile],"62.6% (36.1%, 81.8%)"
same,IIV on Ka: NONMEM Estimate (% RSE),65.9% (13.6%) CV %
same,IIV on V/F: Bootstrap Median [2.5th-97.5th percentile],"77.9% (39.3%, 107%)"
same,IIV on V/F: NONMEM Estimate (% RSE),77.3% (18.0%) CV %
same,IOV on F: Bootstrap Median [2.5th-97.5th percentile],"31.4% (26.3%, 37.9%)"
same,IOV on F: NONMEM Estimate (% RSE),31.5% (8.01%) CV %
same,"Ka, absorption rate constant: Bootstrap Median [2.5th-97.5th percentile]","0.465 (0.361, 0.638) h^−1"
same,"Ka, absorption rate constant: NONMEM Estimate (% RSE)",0.466 (11.5%) h^−1
same,Proportional RUV: Bootstrap Median [2.5th-97.5th percentile],"17.4% (16.1%, 18.8%)"
same,Proportional RUV: NONMEM Estimate (% RSE),17.5% (3.76%)
same,"V/F, apparent volume of distribution: NONMEM Estimate (% RSE)",284000 (19.9%) L
same,Vd/F,278000 L
same,"dC BSL, dC endogenous baseline level: Bootstrap Median [2.5th-97.5th percentile]","3.45 (3.21, 3.65) ng/mL"
same,"dC BSL, dC endogenous baseline level: NONMEM Estimate (% RSE)",3.45 (3.29%) ng/mL
same,decrease of absorption rate constant (Ka) with food intake,~44%
same,difference in F between HV and TK2 deficient participants,No difference in F was detected
same,endogenous baseline across studies and populations,the same across studies and populations
"Cc1cn([C@H]2C[C@H](O)[C@@H](CO)O2)c(=O)[nH]c1=O [dT, β-D-2′-deoxythymidine]",F lower in healthy volunteers compared to TK2 deficient participants,70-90%
same,bioavailability,~83%
same,decrease of F in Latino/Hispanic population,~50%
same,decrease of absorption rate constant from first input compartment (K12) with high-fat content meal,~80%
same,decrease of lag time from second input compartment (ALAG3) with high-fat content meal,~80%
same,dose proportionality of exposures following single ascending doses,more than dose proportional
same,endogenous baseline across studies,0.220 to 1.14 ng/mL
same,increase of F with a high-fat content meal,~120%
